Measurements: patent US20220233471A1, “PRODRUG COMPOSITIONS AND METHODS OF TREATMENT” (AQUESTIVE THERAPEUTICS, INC., priority 2021, published 2022)
“Also recorded” adds a separate entry of the source.

Columns and labels:
[1] = aerodynamic particle size of exposure aerosol (Aerodynamic Particle Sizer); assay type: physicochemical; settings: exposure aerosol of micronized powder
Description: Mass median aerodynamic diameter (MMAD) of AQEP-09 was 1.57 μm (Geometric Standard Deviation (GSD) 1.74) and MMAD for Dipivefrin was 1.47 μm (GSD 2.63).

[2] = test system: 3D culture model (EpiAirways, MatTek) of human lung epithelial cells
Protocol: (§1) Epinephrine prodrugs were evaluated. In vitro inhalation models were employed. In particular, an esterase hydrolysis assay was employed using human branchoalveolar lavage (BAL) fluid to examine prodrug stability. A permeability assay using in vitro a 3D culture model (EpiAirways, MatTek) of human lung epithelial cells was also performed. The 3D culture system mimics the structure of lungs, allowing for study of the hydrolysis of prodrugs in the lungs by esterases and the systemic permeability data. The EpiAirway 3D culture includes a ciliated apical surface, mucociliary epithelium and microporous membrane.
In vitro permeability of the 3D culture was studied.
The Franz diffusion cell apparatus consists of two chambers separated by a membrane. The permeation studies were conducted using the 3D lung cell culture. The tissue membrane separates the donor compartment containing the prodrug and the receptor compartment containing the collection media whish was selected to provide sink conditions throughout the experiment.
(§2) Compounds were incubated at different concentrations (5 mM, 10 mM, and 50 mM). Cell viability was assessed by LDH Cytotoxicity Detection kit (Takara # MK401) and MTT tissue viability assay kit (MatTek, # MTT-100). Receiver media were removed at different timepoints, 0.5, 1, 2, 3, 4, 6 hrs to test permeability; Samples were extracted and analyzed by an LC-MS method.
(§3) Referring to FIGS. 3C-3D Dipivefrin and AQEP-09 toxicity and permeability using human lung epithelial cells was also studied in the EpiAirway model. Compounds were incubated at different concentrations (0.1 mM, 1 mM, 2 mM) and cell viability was assessed by LDH release assay and MTT assay. See, e.g., Aysun Adan, Yağmur Kiraz and Yusuf Baran, “Cell Proliferation and Cytotoxicity Assays”, Current Pharmaceutical Biotechnology (2016) 17: 1213, which is incorporated by reference in its entirety. Receiver media were removed at different timepoints, 1, 2, 3, 4 hrs to test permeability. Samples were extracted and analyzed by LC-MS method.

[3] = particle size distribution of jet-milled (micronized) prodrugs; assay type: physicochemical; settings: feed rate 840 g/hr
Protocol: Both dipivefrin and Diisobutyryl L-epinephrine were micronized using the jet milling process using nitrogen. The effect of pressure and feed rates were determined. The particle sizes of the micronized material are shown in the Table 1 and micronized/milled material suitable for drug powder inhalation (2-5 μm) were manufactured.

[4] = esterase hydrolysis assay in human BAL fluid (prodrug stability); assay type: in vitro ADME; settings: Human BAL fluid from 2 subjects; 1 μM; stabilizer sodium metabisulfite 8.9 mM; LC-MS
Protocol: Epinephrine prodrugs were evaluated. In vitro inhalation models were employed.
Hydrolysis of dipivefrin or AQEP-09 was studied in vitro in Human BAL fluid by measuring the epinephrine concentration. Frozen BAL fluid was used from 2 subjects. Compounds were incubated at 1 μM in the presence of a stabilizer (sodium metabisulfite, 8.9 mM). Samples were removed after stopping the enzyme reaction using NaF or SigmaFast at different timepoints. Samples were extracted and analyzed by LC-MS method. […] Less than 5% hydrolysis was observed.

[5] = pharmacokinetics of epinephrine in Beagle dogs after bolus inhalation of prodrugs or IM EpiPen; assay type: in vivo; settings: inhalation 0.4 vs 0.2 mg/kg (target 2×)
[6] = test system: human lung epithelial cells; assay: LDH cytotoxicity / release assay in EpiAirway 3D culture; assay type: cell-based; settings: for toxicity / cell viability in the LDH assay: 0.1 mM, 1 mM, 2 mM; for cell viability in the LDH assay: 5 mM, 10 mM, 50 mM
Protocol: as §1, §2, §3

[7] = excipient compatibility study with dry powder inhalation carriers; assay type: physicochemical
Protocol: Compatibility of epinephrine prodrugs Disobutyryl L-epinephrine (AQEP-09) and Dipivefrin was studied with common carriers used for dry powder inhalation applications. Lactose monohydrate, Lactose anhydrous and Mannitol were used for the stability evaluation. Mixtures of the micronized API and the carriers were tested under stability conditions, 25° C./60%RH and 40° C./75%RH.

[8] = stability in sodium metabisulfite; assay type: physicochemical
Description: A prodrug can present improved hydrophobicity, better permeation, dose reduction, and enhanced speed of absorption. It can also provide alternative compositions with unique stability profiles. […] A prodrug that is not absorbed in the stomach can also avoid, minimize or eliminate the side effect of epigastric pain. Moreover, a prodrug can result in reduced adrenergic receptor binding, resulting in reduced variability of vasoconstriction and more stability.

[9] = nitrogen milling pressure 1.5 bar
[10] = nitrogen milling pressure 3.5 bar
[11] = Lactose Anhydrous, 25° C./60% RH, 0 weeks
[12] = Lactose Anhydrous, 25° C./60% RH, 2 weeks
[13] = Lactose Anhydrous, 25° C./60% RH, 4 weeks
[14] = Lactose Anhydrous, 40° C./75% RH, 0 weeks
[15] = Lactose Anhydrous, 40° C./75% RH, 2 weeks
[16] = Lactose Anhydrous, 40° C./75% RH, 4 weeks
[17] = Lactose Monohydrate, 25° C./60% RH, 0 weeks
[18] = Lactose Monohydrate, 25° C./60% RH, 2 weeks
[19] = Lactose Monohydrate, 25° C./60% RH, 4 weeks
[20] = Lactose Monohydrate, 40° C./75% RH, 0 weeks
[21] = Lactose Monohydrate, 40° C./75% RH, 2 weeks
[22] = Lactose Monohydrate, 40° C./75% RH, 4 weeks
[23] = Mannitol, 25° C./60% RH, 0 weeks
[24] = Mannitol, 25° C./60% RH, 2 weeks
[25] = Mannitol, 25° C./60% RH, 4 weeks
[26] = Mannitol, 40° C./75% RH, 0 weeks
[27] = Mannitol, 40° C./75% RH, 2 weeks
[28] = Mannitol, 40° C./75% RH, 4 weeks

GSD [1]	MMAD [1] [μm]	Particle size d10 [3, 9]	Particle size d50 [3, 9]	Particle size d90 [3, 9]	Particle size d10 [3, 10]	Particle size d50 [3, 10]	Particle size d90 [3, 10]	hydrolysis to epinephrine [4]	Assay (Percent Label Claim) [7, 11] [%]	Assay (Percent Label Claim) [7, 12] [%]	Assay (Percent Label Claim) [7, 13] [%]	Assay (Percent Label Claim) [7, 14] [%]	Assay (Percent Label Claim) [7, 15] [%]	Assay (Percent Label Claim) [7, 16] [%]	Assay (Percent Label Claim) [7, 17] [%]	Assay (Percent Label Claim) [7, 18] [%]	Assay (Percent Label Claim) [7, 19] [%]	Assay (Percent Label Claim) [7, 20] [%]	SMILES	toxicity / cell viability in the LDH assay [6]	also measured
1.74	1.57	d10-10.30 μm	d50-55.70 μm	d90-132.75 μm	d10-0.46 μm	d50-1.12 μm	d90-2.37 μm	minimal hydrolysis	100	103	103	100	97	87	100	100	97	100	CNCC(O)c1ccc(OC(=O)C(C)C)c(OC(=O)C(C)C)c1 [AQEP-09, Diisobutyryl L-epinephrine]	did not show any toxicity; also recorded: no or less toxicity	permeability compared to Dipivefrin [2]: lower permeability; increase in dose that shows comparable permeability to Dipivefrin ([2]; human): 50%; Overall dose response [5]: slightly less than dose proportional; Assay (Percent Label Claim) [7, 21]: 94%; Assay (Percent Label Claim) [7, 22]: 83%; Assay (Percent Label Claim) [7, 23]: 100%; Assay (Percent Label Claim) [7, 24]: 96%; Assay (Percent Label Claim) [7, 25]: 96%; Assay (Percent Label Claim) [7, 26]: 100%; Assay (Percent Label Claim) [7, 27]: 95%; Assay (Percent Label Claim) [7, 28]: 84%
2.63	1.47	d10-0.91 μm	d50-6.24 μm	d90-13.18 μm	d10-0.53 μm	d50-1.27 μm	d90-2.92 μm	minimal hydrolysis	100	100	96	100	99	95	100	101	96	100	CNCC(O)c1ccc(OC(=O)C(C)(C)C)c(OC(=O)C(C)(C)C)c1 (stereo not drawn) [Dipivefrin]	lower cell viability	permeability in human lung model [2]: dose dependent permeability; cell viability in the LDH assay ([6]; 6 h): cell viability was reduced at all doses; cell viability in the LDH assay ([6]; 24 hr): viability was improved; stability in sodium metabisulfite [8]: unstable; Assay (Percent Label Claim) [7, 21]: 96%; Assay (Percent Label Claim) [7, 22]: 81%; Assay (Percent Label Claim) [7, 23]: 100%; Assay (Percent Label Claim) [7, 24]: 101%; Assay (Percent Label Claim) [7, 25]: 98%; Assay (Percent Label Claim) [7, 26]: 100%; Assay (Percent Label Claim) [7, 27]: 101%; Assay (Percent Label Claim) [7, 28]: 95%
